Measurements reported in ChEMBL document CHEMBL4145553, “Design, synthesis, and biological evaluation of novel amide and hydrazide based thioether analogs targeting Histone deacteylase (HDAC) enzymes” (Eur J Med Chem, 2018).

Assays:
SR = assay: Growth of human SR cells at 10 uM incubated for 48 hrs by sulforhodamine B assay relative to control
UO-31 = assay: Growth inhibition of human UO31 cells at 10 uM incubated for 48 hrs by sulforhodamine B assay relative to control; format: functional; conditions: UO-31, 48 h, values are per cent of control
OVCAR-4 = assay: Growth of human OVCAR4 cells at 10 uM incubated for 48 hrs by sulforhodamine B assay relative to control; conditions: OVCAR-4, 48 h
HT-29 = assay: Growth of human HT-29 cells at 10 uM incubated for 48 hrs by sulforhodamine B assay relative to control; conditions: HT-29, 48 h
HCT-116 = assay: Growth of human HCT116 cells at 10 uM incubated for 48 hrs by sulforhodamine B assay relative to control; conditions: HCT-116, 48 h
COLO 205 = assay: Growth of human COLO205 cells at 10 uM incubated for 48 hrs by sulforhodamine B assay relative to control; conditions: COLO 205, 48 h
NCI-H522 = assay: Growth of human NCI-H522 cells at 10 uM incubated for 48 hrs by sulforhodamine B assay relative to control; conditions: NCI-H522, 48 h
TK-10 = assay: Growth inhibition of human TK10 cells at 10 uM incubated for 48 hrs by sulforhodamine B assay relative to control; format: functional; conditions: TK-10, 48 h, values are per cent of control
SF-268 = assay: Growth of human SF268 cells at 10 uM incubated for 48 hrs by sulforhodamine B assay relative to control; conditions: SF-268, 48 h
SF-295 = assay: Growth of human SF295 cells at 10 uM incubated for 48 hrs by sulforhodamine B assay relative to control; conditions: SF-295, 48 h
SW-620 = assay: Growth of human SW620 cells at 10 uM incubated for 48 hrs by sulforhodamine B assay relative to control; conditions: SW-620, 48 h
SK-OV-3 = assay: Growth inhibition of human SKOV3 cells at 10 uM incubated for 48 hrs by sulforhodamine B assay relative to control; format: functional; conditions: SK-OV-3, 48 h, values are per cent of control
LOX IMVI = assay: Growth of human LOXIMVI cells at 10 uM incubated for 48 hrs by sulforhodamine B assay relative to control
HL-60(TB) = assay: Growth inhibition of human HL-60(TB) cells at 10 uM incubated for 48 hrs by sulforhodamine B assay relative to control; format: functional; conditions: HL-60, 48 h, values are per cent of control
IGROV-1 = assay: Growth of human IGROV1 cells at 10 uM incubated for 48 hrs by sulforhodamine B assay relative to control; conditions: IGROV-1, 48 h
SNB-75 = assay: Growth of human SNB75 cells at 10 uM incubated for 48 hrs by sulforhodamine B assay relative to control; conditions: SNB-75, 48 h
NCI-H322M = assay: Growth inhibition of human NCI-H322M cells at 10 uM incubated for 48 hrs by sulforhodamine B assay relative to control; format: functional; conditions: values are per cent of control
HOP-92 = assay: Growth inhibition of human HOP92 cells at 10 uM incubated for 48 hrs by sulforhodamine B assay relative to control; format: functional; conditions: HOP-92, 48 h, values are per cent of control
CAKI-1 = assay: Growth inhibition of human Caki1 cells at 10 uM incubated for 48 hrs by sulforhodamine B assay relative to control; format: functional; conditions: CAKI-1, 48 h, values are per cent of control
SK-MEL-28 = assay: Growth of human SK-MEL-28 cells at 10 uM incubated for 48 hrs by sulforhodamine B assay relative to control; conditions: SK-MEL-28, 48 h
PC-3 = assay: Growth inhibition of human PC3 cells at 10 uM incubated for 48 hrs by sulforhodamine B assay relative to control; format: functional; conditions: PC-3, 48 h, values are per cent of control
EKVX = assay: Growth of human EKVX cells at 10 uM incubated for 48 hrs by sulforhodamine B assay relative to control
T47D = assay: Growth inhibition of human T47D cells at 10 uM incubated for 48 hrs by sulforhodamine B assay relative to control; format: functional; conditions: values are per cent of control
K562 = assay: Growth of human K562 cells at 10 uM incubated for 48 hrs by sulforhodamine B assay relative to control; conditions: K562, 48 h
NCI-H23 = assay: Growth inhibition of human NCI-H23 cells at 10 uM incubated for 48 hrs by sulforhodamine B assay relative to control; format: functional; conditions: NCI-H23, 48 h, values are per cent of control
UACC-62 = assay: Growth of human UACC62 cells at 10 uM incubated for 48 hrs by sulforhodamine B assay relative to control; conditions: UACC-62, 48 h
RXF 393 = assay: Growth inhibition of human RXF393 cells at 10 uM incubated for 48 hrs by sulforhodamine B assay relative to control; format: functional; conditions: RXF 393, 48 h, values are per cent of control
DU-145 = assay: Growth inhibition of human DU145 cells at 10 uM incubated for 48 hrs by sulforhodamine B assay relative to control; format: functional; conditions: DU-145, 48 h, values are per cent of control
SF-539 = assay: Growth of human SF539 cells at 10 uM incubated for 48 hrs by sulforhodamine B assay relative to control; conditions: SF-539, 48 h
UACC-257 = assay: Growth of human UACC257 cells at 10 uM incubated for 48 hrs by sulforhodamine B assay relative to control; conditions: UACC-257, 48 h
NCI/ADR-RES = assay: Growth inhibition of human NCI/ADR-RES cells at 10 uM incubated for 48 hrs by sulforhodamine B assay relative to control; format: functional; conditions: values are per cent of control
MDA-MB-231 = assay: Growth inhibition of human MDA-MB-231 cells at 10 uM incubated for 48 hrs by sulforhodamine B assay relative to control; format: functional; conditions: MDA-MB-231, 48 h, values are per cent of control
OVCAR-3 = assay: Growth of human OVCAR3 cells at 10 uM incubated for 48 hrs by sulforhodamine B assay relative to control; conditions: OVCAR-3, 48 h
MCF7 = assay: Growth inhibition of human MCF7 cells at 10 uM incubated for 48 hrs by sulforhodamine B assay relative to control; format: functional; conditions: MCF7, 48 h, values are per cent of control

| Compound | growth, % of control at 10 µM (SR) | growth, % of control at 10 µM (UO-31) | growth, % of control at 10 µM (OVCAR-4) | growth, % of control at 10 µM (HT-29) | growth, % of control at 10 µM (HCT-116) | growth, % of control at 10 µM (COLO 205) | growth, % of control at 10 µM (NCI-H522) | growth, % of control at 10 µM (TK-10) | growth, % of control at 10 µM (SF-268) | growth, % of control at 10 µM (SF-295) | growth, % of control at 10 µM (SW-620) | growth, % of control at 10 µM (SK-OV-3) | growth, % of control at 10 µM (LOX IMVI) | growth, % of control at 10 µM (HL-60(TB)) | growth, % of control at 10 µM (IGROV-1) | growth, % of control at 10 µM (SNB-75) | growth, % of control at 10 µM (NCI-H322M) | growth, % of control at 10 µM (HOP-92) | growth, % of control at 10 µM (CAKI-1) | growth, % of control at 10 µM (SK-MEL-28) | further results |
| --- | --- | --- | --- | --- | --- | --- | --- | --- | --- | --- | --- | --- | --- | --- | --- | --- | --- | --- | --- | --- | --- |
| CC(C)(C)S/C(Nc1ccccc1)=C(\C#N)C(=O)N/N=C\c1ccc(Cl)cc1Cl | 70% | 82.7% | 112% | 92.6% | 88% | 112% | 82.7% | 99.1% | 99.7% | 97.9% | 105% | 101% | 101% | 89.2% | 98.7% | 102% | 99.8% | 94.1% | 98.4% | 108% | growth, % of control at 10 µM (PC-3): 96.3%; growth, % of control at 10 µM (EKVX): 101%; growth, % of control at 10 µM (T47D): 78.4%; growth, % of control at 10 µM (K562): 91.8%; growth, % of control at 10 µM (NCI-H23): 92.5%; growth, % of control at 10 µM (UACC-62): 89.9%; growth, % of control at 10 µM (RXF 393): 103%; growth, % of control at 10 µM (DU-145): 113%; growth, % of control at 10 µM (SF-539): 98%; growth, % of control at 10 µM (UACC-257): 92.5%; growth, % of control at 10 µM (NCI/ADR-RES): 96%; growth, % of control at 10 µM (MDA-MB-231): 96.8%; growth, % of control at 10 µM (OVCAR-3): 98.6%; growth, % of control at 10 µM (MCF7): 92.7% |
| CCS/C(Nc1ccccc1)=C(\C#N)C(=O)N/N=C\c1ccco1 | 85.1% | 86.8% | 106% | 94.7% | 95.5% | 103% | 75.7% | 103% | 98% | 101% | 103% | 99.3% | 109% | 84.2% | 105% | 89.1% | 101% | 94.7% | 95.9% | 109% | growth, % of control at 10 µM (PC-3): 99.4%; growth, % of control at 10 µM (EKVX): 101%; growth, % of control at 10 µM (T47D): 78%; growth, % of control at 10 µM (K562): 97.8%; growth, % of control at 10 µM (NCI-H23): 96.5%; growth, % of control at 10 µM (UACC-62): 97.7%; growth, % of control at 10 µM (RXF 393): 104%; growth, % of control at 10 µM (DU-145): 106%; growth, % of control at 10 µM (SF-539): 98.7%; growth, % of control at 10 µM (UACC-257): 84.4%; growth, % of control at 10 µM (NCI/ADR-RES): 101%; growth, % of control at 10 µM (MDA-MB-231): 96.2%; growth, % of control at 10 µM (OVCAR-3): 104%; growth, % of control at 10 µM (MCF7): 66.8% |
